Here are results for 29 compounds from patent publication US20250059159A1, “PLPRO INHIBITORS” (SHANGHAI SYNERGY PHARMACEUTICAL SCIENCES CO., LTD., priority 2021, published 2025).

The experiment deals with SARS-CoV-2 PLpro (Severe acute respiratory syndrome coronavirus 2 (2019-nCoV) (SARS-CoV-2), UniProt P0DTD1). As to the kind of experiment: PLpro enzymatic inhibition assay (IC50 value determination). It counts as biochemical. The note with it: 60 min preincubation for covalent inhibitors, 10 min for non-covalent, read-out: Inhibition of SARS-CoV-2 PLpro IC50 range.

Consider `C[C@H](c1cccc2ccccc12)N1CCC(N(CC(=O)NCC(=O)NC/C=C/S(C)(=O)=O)S(C)(=O)=O)CC1` [Compound 59, (R,E)-N-(3-(methylsulfonyl)allyl)-2-(2-(N-(1-(1-(naphthalen-1-yl)ethyl)piperidin-4-yl)methylsulfonamido)acetamido)acetamide], for which the IC50 lay within 100 to 1000 nM. Regarding `C[C@H](c1cccc2ccccc12)N1CCC(N(CC(=O)NCC(=O)NCC=O)S(C)(=O)=O)CC1` [Compound 64, (R)-2-(N-(1-(1-(naphthalen-1-yl)ethyl)piperidin-4-yl)methylsulfonamido)-N-(2-oxo-2-((2-oxoethyl)amino)ethyl)acetamide], the IC50 is under 100 nM. In the case of `COC(=O)/C=C/CNC(=O)CNC(=O)CN(/C=C/C(=O)C(F)(F)F)C1CCN([C@H](C)c2cccc3ccccc23)CC1` [Compound 67, methyl (E)-4-(2-(2-((1-((R)-1-(naphthalen-1-yl)ethyl)piperidin-4-yl)((E)-4,4,4-trifluoro-3-oxobut-1-en-1-yl)amino)acetamido)acetamido)but-2-enoate] it was under 100 nM; in that of `C#CCNC(=O)CCC(=O)CN(C1CCN([C@H](C)c2cccc3ccccc23)CC1)S(C)(=O)=O` [Compound 81, (R)-5-(N-(1-(1-(naphthalen-1-yl)ethyl)piperidin-4-yl)methylsulfonamido)-4-oxo-N-(prop-2-yn-1-yl)pentanamide], 1000 to 10000 nM. In the case of `C#CCNC(=O)CNC(=O)CN(C1CCN(C(C)c2cccc3cccnc23)CC1)S(C)(=O)=O` (centres unmarked) [Compound 82, N-(2-oxo-2-(prop-2-yn-1-ylamino)ethyl)-2-(N-(1-(1-(quinolin-8-yl)ethyl)piperidin-4-yl)methylsulfonamido)acetamide] it was 100 to 1000 nM; in that of `C#CCNC(=O)CNC(=O)CN(C1CCN(C(C)c2c(F)ccc3ccccc23)CC1)S(C)(=O)=O` (centres unmarked) [Compound 83, 2-(N-(1-(1-(2-fluoronaphthalen-1-yl)ethyl)piperidin-4-yl)methylsulfonamido)-N-(2-oxo-2-(prop-2-yn-1-ylamino)ethyl)acetamide], 100 to 1000 nM.

On to `C#CCNC(=O)CNC(=O)CN(C1CCN(C(C)c2cccc3ccc(Cl)cc23)CC1)S(C)(=O)=O` (centres unmarked) [Compound 84, 2-(N-(1-(1-(7-chloronaphthalen-1-yl)ethyl)piperidin-4-yl)methylsulfonamido)-N-(2-oxo-2-(prop-2-yn-1-ylamino)ethyl)acetamide], for which the IC50 is under 100 nM. The same measure for `C#CCNC(=O)CNC(=O)CN(C1CCN(C(C)c2ccnc3ccccc23)CC1)S(C)(=O)=O` (centres unmarked) [Compound 85, N-(2-oxo-2-(prop-2-yn-1-ylamino)ethyl)-2-(N-(1-(1-(quinolin-4-yl)ethyl)piperidin-4-yl)methylsulfonamido)acetamide]: 100 to 1000 nM. `C#CCNC(=O)CNC(=O)CN(C1CCN([C@@H](C)c2cccc3ccccc23)CC1)S(C)(=O)=O` [Compound 89, (S)-2-(N-(1-(1-(naphthalen-1-yl)ethyl)piperidin-4-yl)methylsulfonamido)-N-(2-oxo-2-(prop-2-yn-1-ylamino)ethyl)acetamide]: the IC50 is under 100 nM.

For the compound `C#CCNC(=O)CNC(=O)CN(C1CCN([C@@H](C)c2cccc3ccccc23)CC1)S(=O)(=O)C1CC1` [Compound 90, (S)-2-(N-(1-(1-(naphthalen-1-yl)ethyl)piperidin-4-yl)cyclopropanesulfonamido)-N-(2-oxo-2-(prop-2-yn-1-ylamino)ethyl)acetamide], the IC50 was under 100 nM. As for `C#CCNC(=O)CNC(=O)CN(C1CCN([C@@H](C)c2cccc3ccccc23)CC1)S(=O)(=O)N1CCCC1` [Compound 91, (S)-2-(N-(1-(1-(naphthalen-1-yl)ethyl)piperidin-4-yl)pyrrolidine-1-sulfonamido)-N-(2-oxo-2-(prop-2-yn-1-ylamino)ethyl)acetamide], the IC50 was under 100 nM.

Consider `C#CCNC(=O)CNC(=O)[C@@H]1CNS(=O)(=O)N1C1CCN([C@H](C)c2cccc3ccccc23)CC1` [Compound 92, (S)-2-(1-((R)-1-(naphthalen-1-yl)ethyl)piperidin-4-yl)-N-(2-oxo-2-(prop-2-yn-1-ylamino)ethyl)-1,2,5-thiadiazolidine-3-carboxamide 1,1-dioxide 2,2,2-trifluoroacetate], for which the IC50 was 1000 to 10000 nM. In the case of `C#CCNC(=O)CNC(=O)CN(C1CCN([C@H](C)c2cccc3ccccc23)CC1F)S(C)(=O)=O` (stereo partly drawn) [Compound 93, 2-(N-(3-fluoro-1-((R)-1-(naphthalen-1-yl)ethyl)piperidin-4-yl)methylsulfonamido)-N-(2-oxo-2-(prop-2-yn-1-ylamino)ethyl)acetamide] it was 100 to 1000 nM; in that of `C#CCNC(=O)CNC(=O)CN(C1CCN(C(C)c2cccc(Cl)c2Cl)CC1)S(C)(=O)=O` (centres unmarked) [Compound 94, 2-(N-(1-(1-(2,3-dichlorophenyl)ethyl)piperidin-4-yl)methylsulfonamido)-N-(2-oxo-2-(prop-2-yn-1-ylamino)ethyl)acetamide], 100 to 1000 nM; in that of `C#CCNC(=O)CNC(=O)CN(C1CCN(C(C)c2ccc(OC)c3ccccc23)CC1)S(C)(=O)=O` (centres unmarked) [Compound 96, 2-(N-(1-(1-(4-methoxynaphthalen-1-yl)ethyl)piperidin-4-yl)methylsulfonamido)-N-(2-oxo-2-(prop-2-yn-1-ylamino)ethyl)acetamide], under 100 nM. Consider `C#CCNC(=O)CNC(=O)CN(C1CCN(C(C)c2cccc3ccccc23)CC1)S(C)(=O)=O` (centres unmarked) [Compound 97, 2-(N-(1-(1-(naphthalen-1-yl)ethyl)piperidin-4-yl)methylsulfonamido)-N-(2-oxo-2-(prop-2-yn-1-ylamino)ethyl)acetamide], for which the IC50 is under 100 nM.

Take `C#CCNC(=O)CNC(=O)CN(C1CCN(C(C)c2cccc3ccccc23)CC1)S(=O)(=O)N1CCCC1` (centres unmarked) [Compound 98, 2-(N-(1-(1-(naphthalen-1-yl)ethyl)piperidin-4-yl)pyrrolidine-1-sulfonamido)-N-(2-oxo-2-(prop-2-yn-1-ylamino)ethyl)acetamide]: the IC50 is under 100 nM. For `C#CCNC(=O)CNC(=O)CN(C1CCN(C(C)c2cccc(C)c2C)CC1)S(C)(=O)=O` (centres unmarked) [Compound 99, 2-(N-(1-(1-(2,3-dimethylphenyl)ethyl)piperidin-4-yl)methylsulfonamido)-N-(2-oxo-2-(prop-2-yn-1-ylamino)ethyl)acetamide], the IC50 was under 100 nM.

Take `C#CCNC(=O)CNC(=O)CN(C1CCN(C(c2cccc3ccccc23)C(F)(F)F)CC1)S(C)(=O)=O` (centres unmarked) [Compound 100, N-(2-oxo-2-(prop-2-yn-1-ylamino)ethyl)-2-(N-(1-(2,2,2-trifluoro-1-(naphthalen-1-yl)ethyl)piperidin-4-yl)methylsulfonamido)acetamide]: the IC50 lay in the range of 100 to 1000 nM. In the case of `C#CCNC(=O)CNC(=O)CN(C1CCN(C(C)c2ccccc2Cl)CC1)S(C)(=O)=O` (centres unmarked) [Compound 101, 2-(N-(1-(1-(2-chlorophenyl)ethyl)piperidin-4-yl)methylsulfonamido)-N-(2-oxo-2-(prop-2-yn-1-ylamino)ethyl)acetamide], the IC50 was under 100 nM.

For the compound `C#CCNC(=O)CNC(=O)CN(C1CCN(C(C)c2ccccc2C(F)(F)F)CC1)S(C)(=O)=O` (centres unmarked) [Compound 102, N-(2-oxo-2-(prop-2-yn-1-ylamino)ethyl)-2-(N-(1-(1-(2-(trifluoromethyl)phenyl)ethyl)piperidin-4-yl)methylsulfonamido)acetamide], the IC50 lay in the range of 100 to 1000 nM. The same measure for `C#CCNC(=O)CNC(=O)CN(C1CCN(C(CC)c2cccc3ccccc23)CC1)S(C)(=O)=O` (centres unmarked) [Compound 103, 2-(N-(1-(1-(naphthalen-1-yl)propyl)piperidin-4-yl)methylsulfonamido)-N-(2-oxo-2-(prop-2-yn-1-ylamino)ethyl)acetamide]: 100 to 1000 nM; for `C#CCNC(=O)CNC(=O)CN(C1CCN(C2(c3cccc4ccccc34)CC2)CC1)S(C)(=O)=O` [Compound 105, 2-(N-(1-(1-(naphthalen-1-yl)cyclopropyl)piperidin-4-yl)methylsulfonamido)-N-(2-oxo-2-(prop-2-yn-1-ylamino)ethyl)acetamide]: 1000 to 10000 nM. The same measure for `C#CCNC(=O)CNC(=O)CN(C1CCN(C(C)c2cccc(Br)c2)CC1)S(C)(=O)=O` (centres unmarked) [Compound 108, 2-(N-(1-(1-(3-bromophenyl)ethyl)piperidin-4-yl)methylsulfonamido)-N-(2-oxo-2-(prop-2-yn-1-ylamino)ethyl)acetamide]: 100 to 1000 nM; for `C#CCNC(=O)CNC(=O)CN(C1CCN(C(C)c2ccc3ccccc3c2)CC1)S(C)(=O)=O` (centres unmarked) [Compound 110, 2-(N-(1-(1-(naphthalen-2-yl)ethyl)piperidin-4-yl)methylsulfonamido)-N-(2-oxo-2-(prop-2-yn-1-ylamino)ethyl)acetamide]: under 100 nM.

For the compound `C#CCNC(=O)CNC(=O)CN(C1CCN(C(C)c2nccc3ccccc23)CC1)S(C)(=O)=O` (centres unmarked) [Compound 111, 2-(N-(1-(1-(isoquinolin-1-yl)ethyl)piperidin-4-yl)methylsulfonamido)-N-(2-oxo-2-(prop-2-yn-1-ylamino)ethyl)acetamide], the IC50 lay within 100 to 1000 nM. The same measure for `C#CCNC(=O)CNC(=O)CN(C1CCN(C(C)c2cccc(-c3ccccc3)c2)CC1)S(C)(=O)=O` (centres unmarked) [Compound 112, 2-(N-(1-(1-([1,1′-biphenyl]-3-yl)ethyl)piperidin-4-yl)methylsulfonamido)-N-(2-oxo-2-(prop-2-yn-1-ylamino)ethyl)acetamide]: 100 to 1000 nM; for `C#CCNC(=O)CNC(=O)CN(C1CCN(C(C)c2ccccc2-c2ccccc2)CC1)S(C)(=O)=O` (centres unmarked) [Compound 113, 2-(N-(1-(1-([1,1′-biphenyl]-2-yl)ethyl)piperidin-4-yl)methylsulfonamido)-N-(2-oxo-2-(prop-2-yn-1-ylamino)ethyl)acetamide]: 100 to 1000 nM; for `CC(c1cccc2ccccc12)N1CCC(N(CC(=O)NCC(=O)NCC#N)S(C)(=O)=O)CC1` (centres unmarked) [Compound 114, N-(cyanomethyl)-2-(2-(N-(1-(1-(naphthalen-1-yl)ethyl)piperidin-4-yl)methylsulfonamido)acetamido)acetamide]: 1000 to 10000 nM.
